{"source": "paper PMC9643649", "about": "“Engineering Enzyme Substrate Scope Complementarity for Promiscuous Cascade Synthesis of 1,2‐Amino Alcohols” (Angewandte Chemie (International Ed. in English), 2022)", "target": "T1, RgnTDC (Mediterraneibacter gnavus, UniProt A7B1V0)", "T1 construct": "gene RUMGNA_01526; recombinant, purified; construct details only in the supplement", "assay": "decarboxylation turnover assay of purified enzyme", "format": "biochemical", "conditions": "native substrate"}
{"smiles": "N[C@@H](Cc1c[nH]c2ccccc12)C(=O)O", "note": "[Trp]", "values": [{"measurement": "decarboxylation turnover assay of purified enzyme", "value": "we observed only a slight decrease in activity on Trp and Phe"}]}
